Measured values as given in PMC6979384, “Characterization of the plant homeodomain (PHD) reader family for their histone tail interactions” (Epigenetics & Chromatin, 2020).

Assays:
Assay in all cases: Histone peptide microarray
Format in all cases: binding, human
AIRE (PP) = conditions: sheet "Array Heatmap"; GST-tagged AIRE (PP); arrays performed twice, total replicate number n = 4
How it was run: (§1)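 Mean ± SD of 4 replicate array intensities; GST-PHD finger at 0.5 μM against 293 PTM-bearing histone peptides.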

BAZ2B = conditions: sheet "Array Heatmap"; GST-tagged BAZ2B; arrays performed twice, total replicate number n = 4
How it was run: as §1

BPTF (PB) = conditions: sheet "Array Heatmap"; GST-tagged BPTF (PB); arrays performed twice, total replicate number n = 4
How it was run: as §1

CHD4 (PPCC) = conditions: sheet "Array Heatmap"; GST-tagged CHD4 (PPCC); arrays performed twice, total replicate number n = 4
How it was run: as §1

CHD5 (PCC) = conditions: sheet "Array Heatmap"; GST-tagged CHD5 (PCC); arrays performed twice, total replicate number n = 4
How it was run: as §1

CHD5 (PPCC) = conditions: sheet "Array Heatmap"; GST-tagged CHD5 (PPCC); arrays performed twice, total replicate number n = 4
How it was run: as §1

DIDO1 = conditions: sheet "Array Heatmap"; GST-tagged DIDO1; arrays performed twice, total replicate number n = 4
How it was run: as §1

DPF2 (PPC2W2) = conditions: sheet "Array Heatmap"; GST-tagged DPF2 (PPC2W2); arrays performed twice, total replicate number n = 4
How it was run: as §1

ING1 = conditions: sheet "Array Heatmap"; GST-tagged ING1; arrays performed twice, total replicate number n = 4
How it was run: as §1

ING2 = conditions: sheet "Array Heatmap"; GST-tagged ING2; arrays performed twice, total replicate number n = 4
How it was run: as §1

ING3 = conditions: sheet "Array Heatmap"; GST-tagged ING3; arrays performed twice, total replicate number n = 4
How it was run: as §1

ING4 = conditions: sheet "Array Heatmap"; GST-tagged ING4; arrays performed twice, total replicate number n = 4
How it was run: as §1

ING5 = conditions: sheet "Array Heatmap"; GST-tagged ING5; arrays performed twice, total replicate number n = 4
How it was run: as §1

KDM4C (TTP) = conditions: sheet "Array Heatmap"; GST-tagged KDM4C (TTP); arrays performed twice, total replicate number n = 4
How it was run: as §1

KDM5A (1) = conditions: sheet "Array Heatmap"; GST-tagged KDM5A (1); arrays performed twice, total replicate number n = 4
How it was run: as §1

KDM5A (3) = conditions: sheet "Array Heatmap"; GST-tagged KDM5A (3); arrays performed twice, total replicate number n = 4
How it was run: as §1

KDM5B (1) = conditions: sheet "Array Heatmap"; GST-tagged KDM5B (1); arrays performed twice, total replicate number n = 4
How it was run: as §1

KDM5B (3) = conditions: sheet "Array Heatmap"; GST-tagged KDM5B (3); arrays performed twice, total replicate number n = 4
How it was run: as §1

KDM7A = conditions: sheet "Array Heatmap"; GST-tagged KDM7A; arrays performed twice, total replicate number n = 4
How it was run: as §1

MLL5 = conditions: sheet "Array Heatmap"; GST-tagged MLL5; arrays performed twice, total replicate number n = 4
How it was run: as §1

MORC3 (CW) = conditions: sheet "Array Heatmap"; GST-tagged MORC3 (CW); arrays performed twice, total replicate number n = 4
How it was run: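 GST-PHD reader, 0.5 μM, probed on 293-peptide histone array (single/combinatorial PTMs); optimized array protocol; signal = mean ± SD, n = 4.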

PHF13 = conditions: sheet "Array Heatmap"; GST-tagged PHF13; arrays performed twice, total replicate number n = 4
How it was run: as §1

PHF21A = conditions: sheet "Array Heatmap"; GST-tagged PHF21A; arrays performed twice, total replicate number n = 4
How it was run: as §1

PHF23 = conditions: sheet "Array Heatmap"; GST-tagged PHF23; arrays performed twice, total replicate number n = 4
How it was run: as §1

PHF2 = conditions: sheet "Array Heatmap"; GST-tagged PHF2; arrays performed twice, total replicate number n = 4
How it was run: as §1

PHF8 = conditions: sheet "Array Heatmap"; GST-tagged PHF8; arrays performed twice, total replicate number n = 4
How it was run: as §1

PHRF1 (RP) = conditions: sheet "Array Heatmap"; GST-tagged PHRF1 (RP); arrays performed twice, total replicate number n = 4
How it was run: as §1

RAG2 = conditions: sheet "Array Heatmap"; GST-tagged RAG2; arrays performed twice, total replicate number n = 4
How it was run: as §1

SP140L = conditions: sheet "Array Heatmap"; GST-tagged SP140L; arrays performed twice, total replicate number n = 4
How it was run: as §1

TAF3 = conditions: sheet "Array Heatmap"; GST-tagged TAF3; arrays performed twice, total replicate number n = 4
How it was run: as §1

TRIM66 (PB) = conditions: sheet "Array Heatmap"; GST-tagged TRIM66 (PB); arrays performed twice, total replicate number n = 4
How it was run: as §1

| Substance | Array Heatmap signal, AIRE (PP) (AIRE (PP)) | Array Heatmap signal, BAZ2B (BAZ2B) | Array Heatmap signal, BPTF (PB) (BPTF (PB)) | Array Heatmap signal, CHD4 (PPCC) (CHD4 (PPCC)) | Array Heatmap signal, CHD5 (PCC) (CHD5 (PCC)) | Array Heatmap signal, CHD5 (PPCC) (CHD5 (PPCC)) | Array Heatmap signal, DIDO1 (DIDO1) | Array Heatmap signal, DPF2 (PPC2W2) (DPF2 (PPC2W2)) | Array Heatmap signal, ING1 (ING1) | Array Heatmap signal, ING2 (ING2) | Array Heatmap signal, ING3 (ING3) | Array Heatmap signal, ING4 (ING4) | Array Heatmap signal, ING5 (ING5) | Array Heatmap signal, KDM4C (TTP) (KDM4C (TTP)) | Array Heatmap signal, KDM5A (1) (KDM5A (1)) | Array Heatmap signal, KDM5A (3) (KDM5A (3)) | Array Heatmap signal, KDM5B (1) (KDM5B (1)) | Array Heatmap signal, KDM5B (3) (KDM5B (3)) | Array Heatmap signal, KDM7A (KDM7A) | Array Heatmap signal, MLL5 (MLL5) | other results |
| --- | --- | --- | --- | --- | --- | --- | --- | --- | --- | --- | --- | --- | --- | --- | --- | --- | --- | --- | --- | --- | --- |
| H3.3K27me1: H3.3 15-34 [Peptide H3.3K27me1] | 0.5413 | 0.5147 | 0.3434 | 0.5655 | 0.7906 | 0.5646 | 0.5418 | 0.6219 | 0.4683 | 0.5862 | 0.4473 | 0.4785 | 0.3774 | 0.5409 | 0.5094 | 0.366 | 0.6832 | 0.4744 | 0.4745 | 0.5371 | Array Heatmap signal, MORC3 (CW) (MORC3 (CW)): 0.3133; Array Heatmap signal, PHF13 (PHF13): 0.6089; Array Heatmap signal, PHF21A (PHF21A): 0.4715; Array Heatmap signal, PHF23 (PHF23): 0.4768; Array Heatmap signal, PHF2 (PHF2): 0.3646; Array Heatmap signal, PHF8 (PHF8): 0.3072; Array Heatmap signal, PHRF1 (RP) (PHRF1 (RP)): 0.3762; Array Heatmap signal, RAG2 (RAG2): 0.2345; Array Heatmap signal, SP140L (SP140L): 0.3662; Array Heatmap signal, TAF3 (TAF3): 0.2716; Array Heatmap signal, TRIM66 (PB) (TRIM66 (PB)): 0.534 |
| H3.3K27me2 + S28p: H3.3 15-34 | 0.3996 | 0.4685 | 0.3515 | 0.6277 | 0.7282 | 0.5567 | 0.6639 | 0.6352 | 0.5375 | 0.6211 | 0.4796 | 0.4488 | 0.3515 | 0.4645 | 0.4568 | 0.4997 | 0.6269 | 0.4734 | 0.3322 | 0.548 | Array Heatmap signal, MORC3 (CW) (MORC3 (CW)): 0.3408; Array Heatmap signal, PHF13 (PHF13): 0.6326; Array Heatmap signal, PHF21A (PHF21A): 0.4472; Array Heatmap signal, PHF23 (PHF23): 0.5303; Array Heatmap signal, PHF2 (PHF2): 0.5406; Array Heatmap signal, PHF8 (PHF8): 0.3445; Array Heatmap signal, PHRF1 (RP) (PHRF1 (RP)): 0.4333; Array Heatmap signal, RAG2 (RAG2): 0.2608; Array Heatmap signal, SP140L (SP140L): 0.3521; Array Heatmap signal, TAF3 (TAF3): 0.2725; Array Heatmap signal, TRIM66 (PB) (TRIM66 (PB)): 0.5871 |
| H3.3K27me2: H3.3 15-34 [Peptide H3.3K27me2] | 0.5737 | 0.4966 | 0.3599 | 0.613 | 0.8298 | 0.607 | 0.6851 | 0.6895 | 0.5537 | 0.5964 | 0.5037 | 0.4872 | 0.3925 | 0.5464 | 0.5224 | 0.4717 | 0.6552 | 0.5196 | 0.388 | 0.5397 | Array Heatmap signal, MORC3 (CW) (MORC3 (CW)): 0.404; Array Heatmap signal, PHF13 (PHF13): 0.6291; Array Heatmap signal, PHF21A (PHF21A): 0.5329; Array Heatmap signal, PHF23 (PHF23): 0.5513; Array Heatmap signal, PHF2 (PHF2): 0.504; Array Heatmap signal, PHF8 (PHF8): 0.3923; Array Heatmap signal, PHRF1 (RP) (PHRF1 (RP)): 0.4654; Array Heatmap signal, RAG2 (RAG2): 0.2646; Array Heatmap signal, SP140L (SP140L): 0.3774; Array Heatmap signal, TAF3 (TAF3): 0.2764; Array Heatmap signal, TRIM66 (PB) (TRIM66 (PB)): 0.5739 |
| H3.3K27me3 + S28p: H3.3 15-34 | 0.3112 | 0.3578 | 0.288 | 0.5244 | 0.7455 | 0.4194 | 0.6255 | 0.5839 | 0.4657 | 0.582 | 0.4009 | 0.3661 | 0.2601 | 0.35 | 0.3549 | 0.3655 | 0.5567 | 0.357 | 0.2454 | 0.4825 | Array Heatmap signal, MORC3 (CW) (MORC3 (CW)): 0.3155; Array Heatmap signal, PHF13 (PHF13): 0.4998; Array Heatmap signal, PHF21A (PHF21A): 0.4021; Array Heatmap signal, PHF23 (PHF23): 0.4498; Array Heatmap signal, PHF2 (PHF2): 0.4942; Array Heatmap signal, PHF8 (PHF8): 0.2831; Array Heatmap signal, PHRF1 (RP) (PHRF1 (RP)): 0.3794; Array Heatmap signal, RAG2 (RAG2): 0.2001; Array Heatmap signal, SP140L (SP140L): 0.3164; Array Heatmap signal, TAF3 (TAF3): 0.2035; Array Heatmap signal, TRIM66 (PB) (TRIM66 (PB)): 0.52 |
